How the values were obtained:
wild oat = test: Test Example 5: herbicidal effect by foliage application, plastic box (Table 20, symbol I); format: in vivo, wild oat (Avena fatua); conditions: foliage application; for I: wild oat, herbicidal effect: three weeks after application
Procedure, shortened: (§1)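 Foliar spray test: emulsion formulation diluted in water to a set application rate, sprayed onto 14-day-old plants raised in diluvial soil at 25° C to 30° C under glass. Both herbicidal effect and crop effect rated visually three weeks later.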

windgrass = test: Test Example 5: herbicidal effect by foliage application, plastic box (Table 20, symbol L); format: in vivo, windgrass (Apera spica-venti); conditions: foliage application; for L: windgrass, herbicidal effect: three weeks after application
Procedure, shortened: as §1

persian speedwell = test: Test Example 5: herbicidal effect by foliage application, plastic box (Table 20, symbol R); format: in vivo, Persian speedwell (Veronica persica); conditions: foliage application; for R: persian speedwell, herbicidal effect: three weeks after application
Procedure, shortened: as §1

green foxtail = test: Test Example 5: herbicidal effect by foliage application, plastic box (Table 20, symbol G); format: in vivo, green foxtail (Setaria viridis); conditions: foliage application; for G: green foxtail, herbicidal effect: three weeks after application
Procedure, shortened: as §1

Italian ryegrass = test: Test Example 5: herbicidal effect by foliage application, plastic box (Table 20, symbol K); format: in vivo, Italian ryegrass (Lolium multiflorum); conditions: foliage application; for K: Italian ryegrass, herbicidal effect: three weeks after application
Procedure, shortened: as §1

blackgrass = test: Test Example 5: herbicidal effect by foliage application, plastic box (Table 20, symbol J); format: in vivo, blackgrass (Alopecurus myosuroides); conditions: foliage application; for J: blackgrass, herbicidal effect: three weeks after application
Procedure, shortened: as §1

redroot pigweed = test: Test Example 5: herbicidal effect by foliage application, plastic box (Table 20, symbol N); format: in vivo, redroot pigweed (Amaranthus retroflexus); conditions: foliage application; for N: redroot pigweed, herbicidal effect: three weeks after application
Procedure, shortened: as §1

lambsquarters = test: Test Example 5: herbicidal effect by foliage application, plastic box (Table 20, symbol O); format: in vivo, lambsquarters (Chenopodium album); conditions: foliage application; for O: lambsquarters, herbicidal effect: three weeks after application
Procedure, shortened: as §1

southern crabgrass = test: Test Example 5: herbicidal effect by foliage application, plastic box (Table 20, symbol F); format: in vivo, southern crabgrass (Digitaria ciliaris); conditions: foliage application; for F: southern crabgrass, herbicidal effect: three weeks after application
Procedure, shortened: as §1

chickweed = test: Test Example 5: herbicidal effect by foliage application, plastic box (Table 20, symbol P); format: in vivo, common chickweed (Stellaria media); conditions: foliage application; for P: chickweed, herbicidal effect: three weeks after application
Excerpt: [Test Example 5] Herbicidal Effect Test by Foliage Application
Sterilized diluvial soil was placed in a plastic box having a length of 21 cm, a width of 13 cm, and a depth of 7 cm. The seeds of each of southern crabgrass, green foxtail, barnyard grass, wild oat, blackgrass, Italian ryegrass, windgrass, velvetleaf, redroot pigweed, lambsquarters, chickweed, false cleavers, persian speedwell, corn, soybean, rice, wheat, beet, and rapeseed were sowed in a spot-like manner and covered with the soil having a thickness of about 1.5 cm. Thereafter, the plants were grown in a greenhouse at 25° C. to 30° C. After 14-day growth of the plants, the emulsion agent of the compound of the present invention prepared according to Formulation Example 2 was diluted with water so as to achieve a predetermined herbicide amount, and the diluted emulsion agent was uniformly applied to a foliage part with a small-sized spray. Three weeks after the herbicide application, the effect of the herbicide on each plant was evaluated according to the criteria of Test Example 1.

velvetleaf = test: Test Example 5: herbicidal effect by foliage application, plastic box (Table 20, symbol M); format: in vivo, velvetleaf (Abutilon theophrasti); conditions: foliage application; for M: velvetleaf, herbicidal effect: three weeks after application
Procedure, shortened: as §1

rice flat sedge = test: Test Example 3: herbicidal effect by foliage application, Wagner pot (Table 18, symbol E); format: in vivo, rice flat sedge (Cyperus iria)
Procedure, shortened: (§2)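 Plants were sown in alluvial soil held under 0.1–0.5 cm standing water and grown 14 days in a greenhouse at 25–30 °C. An emulsifiable formulation, water-diluted to the set dose, was then sprayed onto the foliage, and effects were scored three weeks later using previously defined criteria.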

barnyard grass [1] = test: Test Example 3: herbicidal effect by foliage application, Wagner pot (Table 18, symbol H); format: in vivo, barnyard grass (Echinochloa crus-galli)
Procedure, shortened: as §2

Chinese sprangletop = test: Test Example 3: herbicidal effect by foliage application, Wagner pot (Table 18, symbol D); format: in vivo, chinese sprangletop (Leptochloa chinensis)
Procedure, shortened: as §2

barnyard grass [2] = test: Test Example 5: herbicidal effect by foliage application, plastic box (Table 20, symbol H); format: in vivo, barnyard grass (Echinochloa crus-galli); conditions: foliage application; for H: barnyard grass, herbicidal effect: three weeks after application
Procedure, shortened: as §1

[3] = 320 g/ha, evaluated three weeks after application
[4] = amount of applied herbicide 320 g/ha

COc1cc(C(F)(F)F)ccc1-c1sc2ccccc2c1-c1c(O)c(C)nn(C)c1=O [1-155]
I: wild oat, herbicidal effect (wild oat; AAH 320 g/ha): 1 (Herbicidal rate of 5% or more and less than 20%)
L: windgrass, herbicidal effect (windgrass; AAH 320 g/ha): 4 (Herbicidal rate of 70% or more and less than 90%)
R: persian speedwell, herbicidal effect (persian speedwell; AAH 320 g/ha): 4 (Herbicidal rate of 70% or more and less than 90%)
G: green foxtail, herbicidal effect (green foxtail; AAH 320 g/ha): 3 (Herbicidal rate of 40% or more and less than 70%)
K: Italian ryegrass, herbicidal effect (Italian ryegrass; AAH 320 g/ha): 4 (Herbicidal rate of 70% or more and less than 90%)
J: blackgrass, herbicidal effect (blackgrass; AAH 320 g/ha): 4 (Herbicidal rate of 70% or more and less than 90%)
N: redroot pigweed, herbicidal effect (redroot pigweed; AAH 320 g/ha): 2 (Herbicidal rate of 20% or more and less than 40%)
O: lambsquarters, herbicidal effect (lambsquarters; AAH 320 g/ha): 1 (Herbicidal rate of 5% or more and less than 20%)
F: southern crabgrass, herbicidal effect (southern crabgrass; AAH 320 g/ha): 0 (Herbicidal rate of 5% or less (almost no effect))
P: chickweed, herbicidal effect (chickweed; AAH 320 g/ha): 5 (Herbicidal rate of 90% or more (almost completely withered))
M: velvetleaf, herbicidal effect (velvetleaf; AAH 320 g/ha): 0 (Herbicidal rate of 5% or less (almost no effect))
herbicidal effect on E (rice flat sedge), rating 0-5 (rice flat sedge; 320 g/ha): 3 (Herbicidal rate of 40% or more and less than 70%)
herbicidal effect on H (barnyard grass), rating 0-5 (barnyard grass [1]; 320 g/ha): 3 (Herbicidal rate of 40% or more and less than 70%)
herbicidal effect on D (Chinese sprangletop), rating 0-5 (Chinese sprangletop; 320 g/ha): 0 (Herbicidal rate of 5% or less (almost no effect))
H: barnyard grass, herbicidal effect (barnyard grass [2]; AAH 320 g/ha): 1 (Herbicidal rate of 5% or more and less than 20%)

CCCC(=O)Oc1c(OC)nn(C)c(=O)c1-c1c(-c2ccc(OC(F)(F)F)cc2)sc2ccccc12 [1-163]
I: wild oat, herbicidal effect (wild oat; AAH 80 g/ha): 0 (Herbicidal rate of 5% or less (almost no effect))
L: windgrass, herbicidal effect (windgrass; AAH 80 g/ha): 0 (Herbicidal rate of 5% or less (almost no effect))
R: persian speedwell, herbicidal effect (persian speedwell; AAH 80 g/ha): 5 (Herbicidal rate of 90% or more (almost completely withered))
G: green foxtail, herbicidal effect (green foxtail; AAH 80 g/ha): 0 (Herbicidal rate of 5% or less (almost no effect))
K: Italian ryegrass, herbicidal effect (Italian ryegrass; AAH 80 g/ha): 0 (Herbicidal rate of 5% or less (almost no effect))
J: blackgrass, herbicidal effect (blackgrass; AAH 80 g/ha): 0 (Herbicidal rate of 5% or less (almost no effect))
N: redroot pigweed, herbicidal effect (redroot pigweed; AAH 80 g/ha): 3 (Herbicidal rate of 40% or more and less than 70%)
O: lambsquarters, herbicidal effect (lambsquarters; AAH 80 g/ha): 2 (Herbicidal rate of 20% or more and less than 40%)
F: southern crabgrass, herbicidal effect (southern crabgrass; AAH 80 g/ha): 0 (Herbicidal rate of 5% or less (almost no effect))
P: chickweed, herbicidal effect (chickweed; AAH 80 g/ha): 4 (Herbicidal rate of 70% or more and less than 90%)
M: velvetleaf, herbicidal effect (velvetleaf; AAH 80 g/ha): 0 (Herbicidal rate of 5% or less (almost no effect))
herbicidal effect on E (rice flat sedge), rating 0-5 (rice flat sedge; 80 g/ha): 0 (Herbicidal rate of 5% or less (almost no effect))
herbicidal effect on H (barnyard grass), rating 0-5 (barnyard grass [1]; 80 g/ha): 1 (Herbicidal rate of 5% or more and less than 20%)
herbicidal effect on D (Chinese sprangletop), rating 0-5 (Chinese sprangletop; 80 g/ha): 3 (Herbicidal rate of 40% or more and less than 70%)
H: barnyard grass, herbicidal effect (barnyard grass [2]; AAH 80 g/ha): 0 (Herbicidal rate of 5% or less (almost no effect))

COC(=O)COc1ccc(-c2sc3ccc(F)cc3c2-c2c(O)c(C)nn(C)c2=O)cc1 [2-070]
herbicidal effect on I: wild oat (wild oat; [3]): 0 (Herbicidal rate of 5% or less (almost no effect))
herbicidal effect on L: windgrass (windgrass; [3]): 0 (Herbicidal rate of 5% or less (almost no effect))
herbicidal effect on R: persian speedwell (persian speedwell; [3]): 0 (Herbicidal rate of 5% or less (almost no effect))
herbicidal effect on G: green foxtail (green foxtail; [3]): 0 (Herbicidal rate of 5% or less (almost no effect))
herbicidal effect on K: Italian ryegrass (Italian ryegrass; [3]): 0 (Herbicidal rate of 5% or less (almost no effect))
herbicidal effect on J: blackgrass (blackgrass; [3]): 0 (Herbicidal rate of 5% or less (almost no effect))
herbicidal effect on N: redroot pigweed (redroot pigweed; [3]): 2 (Herbicidal rate of 20% or more and less than 40%)
herbicidal effect on O: lambsquarters (lambsquarters; [3]): 0 (Herbicidal rate of 5% or less (almost no effect))
herbicidal effect on F: southern crabgrass (southern crabgrass; [3]): 0 (Herbicidal rate of 5% or less (almost no effect))
herbicidal effect on P: chickweed (chickweed; [3]): 0 (Herbicidal rate of 5% or less (almost no effect))
herbicidal effect on M: velvetleaf (velvetleaf; [3]): 0 (Herbicidal rate of 5% or less (almost no effect))
herbicidal effect on E (rice flat sedge), rating 0-5 (rice flat sedge; 320 g/ha): 0 (Herbicidal rate of 5% or less (almost no effect))
herbicidal effect on H (barnyard grass), rating 0-5 (barnyard grass [1]; 320 g/ha): 2 (Herbicidal rate of 20% or more and less than 40%)
herbicidal effect on D (Chinese sprangletop), rating 0-5 (Chinese sprangletop; 320 g/ha): 0 (Herbicidal rate of 5% or less (almost no effect))
herbicidal effect on H: barnyard grass (barnyard grass [2]; [3]): 0 (Herbicidal rate of 5% or less (almost no effect))

Cc1nn(C)c(=O)c(-c2c(-c3ccc(Oc4ccccc4)cc3)sc3ccc(F)cc23)c1O [2-072]
herbicidal effect on I: wild oat (wild oat; [3]): 0 (Herbicidal rate of 5% or less (almost no effect))
herbicidal effect on L: windgrass (windgrass; [3]): 0 (Herbicidal rate of 5% or less (almost no effect))
herbicidal effect on R: persian speedwell (persian speedwell; [3]): 5 (Herbicidal rate of 90% or more (almost completely withered))
herbicidal effect on G: green foxtail (green foxtail; [3]): 0 (Herbicidal rate of 5% or less (almost no effect))
herbicidal effect on K: Italian ryegrass (Italian ryegrass; [3]): 0 (Herbicidal rate of 5% or less (almost no effect))
herbicidal effect on J: blackgrass (blackgrass; [3]): 0 (Herbicidal rate of 5% or less (almost no effect))
herbicidal effect on N: redroot pigweed (redroot pigweed; [3]): 3 (Herbicidal rate of 40% or more and less than 70%)
herbicidal effect on O: lambsquarters (lambsquarters; [3]): 1 (Herbicidal rate of 5% or more and less than 20%)
herbicidal effect on F: southern crabgrass (southern crabgrass; [3]): 0 (Herbicidal rate of 5% or less (almost no effect))
herbicidal effect on P: chickweed (chickweed; [3]): 0 (Herbicidal rate of 5% or less (almost no effect))
herbicidal effect on M: velvetleaf (velvetleaf; [3]): 2 (Herbicidal rate of 20% or more and less than 40%)
herbicidal effect on E (rice flat sedge), rating 0-5 (rice flat sedge; 320 g/ha): 5 (Herbicidal rate of 90% or more (almost completely withered))
herbicidal effect on H (barnyard grass), rating 0-5 (barnyard grass [1]; 320 g/ha): 2 (Herbicidal rate of 20% or more and less than 40%)
herbicidal effect on D (Chinese sprangletop), rating 0-5 (Chinese sprangletop; 320 g/ha): 3 (Herbicidal rate of 40% or more and less than 70%)
herbicidal effect on H: barnyard grass (barnyard grass [2]; [3]): 0 (Herbicidal rate of 5% or less (almost no effect))

CSc1ccccc1-c1sc2ccc(C)cc2c1-c1c(O)c(C)nn(C)c1=O [2-142]
herbicidal effect on I: wild oat (criteria 0-5) (wild oat; [3]): 1 (Herbicidal rate of 5% or more and less than 20%)
herbicidal effect on L: windgrass (criteria 0-5) (windgrass; [3]): 0 (Herbicidal rate of 5% or less (almost no effect))
herbicidal effect on R: persian speedwell (criteria 0-5) (persian speedwell; [3]): 3 (Herbicidal rate of 40% or more and less than 70%)
herbicidal effect on G: green foxtail (criteria 0-5) (green foxtail; [3]): 0 (Herbicidal rate of 5% or less (almost no effect))
herbicidal effect on K: Italian ryegrass (criteria 0-5) (Italian ryegrass; [3]): 1 (Herbicidal rate of 5% or more and less than 20%)
herbicidal effect on J: blackgrass (criteria 0-5) (blackgrass; [3]): 1 (Herbicidal rate of 5% or more and less than 20%)
herbicidal effect on N: redroot pigweed (criteria 0-5) (redroot pigweed; [3]): 0 (Herbicidal rate of 5% or less (almost no effect))
herbicidal effect on O: lambsquarters (criteria 0-5) (lambsquarters; [3]): 0 (Herbicidal rate of 5% or less (almost no effect))
herbicidal effect on F: southern crabgrass (criteria 0-5) (southern crabgrass; [3]): 0 (Herbicidal rate of 5% or less (almost no effect))
herbicidal effect on P: chickweed (criteria 0-5) (chickweed; [3]): 4 (Herbicidal rate of 70% or more and less than 90%)
herbicidal effect on M: velvetleaf (criteria 0-5) (velvetleaf; [3]): 0 (Herbicidal rate of 5% or less (almost no effect))
herbicidal effect on E: rice flat sedge (rice flat sedge; [4]): 2 (Herbicidal rate of 20% or more and less than 40%)
herbicidal effect on H: barnyard grass (barnyard grass [1]; [4]): 2 (Herbicidal rate of 20% or more and less than 40%)
herbicidal effect on D: Chinese sprangletop (Chinese sprangletop; [4]): 0 (Herbicidal rate of 5% or less (almost no effect))
herbicidal effect on H: barnyard grass (criteria 0-5) (barnyard grass [2]; [3]): 0 (Herbicidal rate of 5% or less (almost no effect))
